In ChEMBL document CHEMBL5512619, “Anticancer mechanism of coumarin-based derivatives” (Eur J Med Chem, 2024) one finds Activity, IC50 and Ki data, which are given here for 18 compounds.

The test system of one assay is CCRF-CEM. As to the kind of experiment: Antiproliferative activity against human CCRF-CEM cells assessed as reduction in cell viability measured after 24 hrs by MTT assay relative to control. As to conditions: pooled result: one value given for 6 cell lines, strains, targets or settings. The assay is classed as functional. For orientation: Tetrazolium dyes change colour on reduction, which living cells bring about.

A further assay relates to SK-OV-3. Kind of assay: Antiproliferative activity against human SK-OV-3 cells measured after 21 hrs by MTT assay. As to conditions: SK-OV-3, 21 h. It counts as functional, cell-based.
A further assay deals with Carbonic anhydrase 2 (Homo sapiens, UniProt P00918). As to the kind of experiment: Binding affinity to human CA2 assessed as inhibition constant incubated for 6 hrs by phenol red dye based stopped flow CO2 hydration assay.
For the next assay, the target named is Carbonic anhydrase 1 (Homo sapiens, UniProt P00915). As to the kind of experiment: Binding affinity to human CA1 assessed as inhibition constant incubated for 6 hrs by phenol red dye based stopped flow CO2 hydration assay.
Chain of Carbonic anhydrase 1 (P00915 whole entry): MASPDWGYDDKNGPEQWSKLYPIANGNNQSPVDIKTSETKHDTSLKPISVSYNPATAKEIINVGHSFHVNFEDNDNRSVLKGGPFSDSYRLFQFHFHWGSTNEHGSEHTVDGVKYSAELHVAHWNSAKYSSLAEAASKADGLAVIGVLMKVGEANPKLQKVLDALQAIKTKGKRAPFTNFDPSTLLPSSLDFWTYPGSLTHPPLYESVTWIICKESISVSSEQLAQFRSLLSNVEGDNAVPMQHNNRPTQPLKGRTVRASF
A further assay addresses Steryl-sulfatase (Homo sapiens, UniProt P08842). Kind of assay: Inhibition of STS in human placental microsome. It counts as microsomes.
Assay [1] addresses T1, Vascular endothelial growth factor receptor 2 (Homo sapiens, UniProt P35968). Kind of assay: Inhibition of human VEGFR2.
The test system of assay [2] is HepG2. As to the kind of experiment: Antiproliferative activity against human HepG2 cells measured after 24 hrs by MTT assay. The assay is classed as functional, cell-based. The conditions noted are these: HepG2, 24 h.
The test system of assay [3] is A549. As to the kind of experiment: Antiproliferative activity against human A549 cells measured after 24 hrs by MTT assay. It counts as functional, cell-based. The conditions noted are these: A549, 24 h.
Assay [4] concerns HCT-116. Kind of assay: Antiproliferative activity against human HCT-116 cells measured after 24 hrs by MTT assay. It counts as functional, cell-based. The conditions noted are these: HCT-116, 24 h.
The next assay has as its system RT-4. Kind of assay: Cytotoxicity against human RT-4 cells assessed as inhibition of cell growth. It counts as functional, cell-based.
The next assay relates to LCLC-103H cell line. As to the kind of experiment: Cytotoxicity against human LCLC-103H cell line assessed as inhibition of cell growth. It counts as functional, cell-based.
The next assay relates to A-427. Kind of assay: Cytotoxicity against human A-427 cells assessed as inhibition of cell growth. The assay is classed as functional, cell-based.
The test system of assay [5] is HeLa. As to the kind of experiment: Antiproliferative activity against human HeLa cells incubated for 24 hrs by MTT assay. The assay is classed as functional, cell-based.
Assay [6] relates to HeLa. Kind of assay: Antiproliferative activity against human HeLa cells measured after 72 hrs by SRB method. It counts as functional, cell-based.
The subject of assay [7] is HCT-116. As to the kind of experiment: cells. As to conditions: Homo sapiens, HCT-116, 72 h.
Description: Antiproliferative activity against human HCT-116 cells measured after 72 hrs by SRB method
Assay [8] has as its system HepG2. As to the kind of experiment: Antiproliferative activity against human HepG2 cells measured after 72 hrs by SRB method. It counts as functional, cell-based. As to conditions: HepG2, 72 h. Background: Sulforhodamine B stains cellular protein and so reports cell mass.
Assay [9] relates to MCF7. Kind of assay: Antiproliferative activity against human MCF7 cells measured after 72 hrs by SRB method. It counts as functional, cell-based. The conditions noted are these: MCF7, 72 h.
Assay [10] can be described thus: Inhibition of DNA topoisomerase II (unknown origin).
Assay [11] deals with MCF7. As to the kind of experiment: Cytotoxicity against human MCF-7 cells relative to control. It counts as functional.
Assay [12] deals with T1, Vascular endothelial growth factor receptor 2. As to the kind of experiment: Inhibition of VEGFR2 (unknown origin).
Assay [13] deals with MCF7. As to the kind of experiment: Cytotoxicity against human MCF-7 cells. The assay is classed as functional, cell-based.
In assay [14] the test system is HeLa. As to the kind of experiment: Antiproliferative activity against human HeLa cells incubated for 48 hrs by MTT assay. It counts as functional, cell-based.
The test system of assay [15] is A549. As to the kind of experiment: Antiproliferative activity against human A549 cells incubated for 48 hrs by MTT assay. It counts as functional, cell-based. The conditions noted are these: A549, 48 h.

T1 sequence (P35968 whole entry): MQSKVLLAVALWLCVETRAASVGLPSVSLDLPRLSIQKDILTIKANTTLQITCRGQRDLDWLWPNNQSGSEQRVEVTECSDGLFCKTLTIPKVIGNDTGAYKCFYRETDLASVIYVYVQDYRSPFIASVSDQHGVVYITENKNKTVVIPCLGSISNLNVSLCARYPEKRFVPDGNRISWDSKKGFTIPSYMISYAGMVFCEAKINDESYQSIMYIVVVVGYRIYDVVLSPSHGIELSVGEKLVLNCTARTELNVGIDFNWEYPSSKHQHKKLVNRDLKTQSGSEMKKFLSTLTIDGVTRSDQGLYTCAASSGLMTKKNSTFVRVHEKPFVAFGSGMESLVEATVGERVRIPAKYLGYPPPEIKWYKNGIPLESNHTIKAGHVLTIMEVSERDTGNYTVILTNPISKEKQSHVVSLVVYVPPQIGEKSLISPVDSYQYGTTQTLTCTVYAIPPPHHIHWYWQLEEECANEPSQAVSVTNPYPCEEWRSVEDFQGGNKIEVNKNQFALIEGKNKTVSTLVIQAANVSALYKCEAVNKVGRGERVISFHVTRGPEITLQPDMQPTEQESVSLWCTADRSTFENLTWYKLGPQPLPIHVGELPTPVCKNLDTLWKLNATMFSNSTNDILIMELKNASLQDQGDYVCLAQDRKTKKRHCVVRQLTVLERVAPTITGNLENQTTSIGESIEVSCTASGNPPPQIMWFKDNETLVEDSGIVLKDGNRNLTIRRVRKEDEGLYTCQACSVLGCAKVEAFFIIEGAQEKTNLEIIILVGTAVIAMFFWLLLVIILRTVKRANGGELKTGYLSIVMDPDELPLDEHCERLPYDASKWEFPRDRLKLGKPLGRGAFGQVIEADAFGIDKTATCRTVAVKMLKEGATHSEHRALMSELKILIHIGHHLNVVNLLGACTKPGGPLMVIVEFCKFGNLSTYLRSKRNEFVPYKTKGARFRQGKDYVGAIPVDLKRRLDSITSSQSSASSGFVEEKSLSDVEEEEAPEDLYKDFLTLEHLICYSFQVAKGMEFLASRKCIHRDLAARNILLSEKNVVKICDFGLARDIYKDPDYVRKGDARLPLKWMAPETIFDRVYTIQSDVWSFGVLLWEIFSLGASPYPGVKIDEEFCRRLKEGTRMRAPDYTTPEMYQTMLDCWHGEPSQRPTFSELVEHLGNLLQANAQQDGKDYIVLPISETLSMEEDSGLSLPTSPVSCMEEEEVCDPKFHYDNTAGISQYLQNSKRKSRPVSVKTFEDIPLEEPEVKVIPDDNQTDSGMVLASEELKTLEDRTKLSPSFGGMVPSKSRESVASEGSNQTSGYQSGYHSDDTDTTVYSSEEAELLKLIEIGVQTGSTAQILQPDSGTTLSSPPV
Chain of Steryl-sulfatase (P08842 whole entry): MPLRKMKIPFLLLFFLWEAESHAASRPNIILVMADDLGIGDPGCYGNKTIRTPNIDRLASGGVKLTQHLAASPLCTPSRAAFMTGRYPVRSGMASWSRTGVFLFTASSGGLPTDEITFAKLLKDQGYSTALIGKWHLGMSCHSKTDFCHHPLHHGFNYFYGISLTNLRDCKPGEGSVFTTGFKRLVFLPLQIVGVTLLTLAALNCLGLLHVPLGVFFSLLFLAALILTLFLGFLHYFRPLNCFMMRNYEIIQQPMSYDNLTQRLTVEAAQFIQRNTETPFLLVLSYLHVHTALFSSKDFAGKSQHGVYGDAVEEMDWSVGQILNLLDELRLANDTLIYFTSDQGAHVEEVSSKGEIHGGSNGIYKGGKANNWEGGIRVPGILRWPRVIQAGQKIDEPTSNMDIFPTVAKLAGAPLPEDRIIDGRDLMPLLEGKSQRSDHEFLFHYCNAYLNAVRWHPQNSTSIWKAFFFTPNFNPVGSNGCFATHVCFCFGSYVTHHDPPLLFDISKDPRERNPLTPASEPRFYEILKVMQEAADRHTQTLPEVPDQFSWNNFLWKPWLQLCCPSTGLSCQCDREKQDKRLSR

Consider `O=C(COc1ccccc1)Nc1ccc2oc(=O)ccc2c1`, for which, in the assay on CCRF-CEM, the Activity came to 61%.

Regarding `COc1cc2oc(=O)ccc2cc1O[C@@H]1O[C@H](CO)[C@@H](O)[C@H](O)[C@H]1O`, the IC50 (usually the concentration at which inhibition is half-maximal) in the assay on SK-OV-3 was more than 100000 nM.

Take `Cc1cc(=O)oc2cc(OCc3cn(CCCCCCCCCCOc4ccc5ccc(=O)oc5c4)nn3)ccc12`: the Ki at Carbonic anhydrase 2 and at Carbonic anhydrase 1 was more than 10000 nM throughout.

`Cc1c(Cc2ccccc2)c(=O)oc2cc(OS(N)(=O)=O)ccc12`: inhibition on Steryl-sulfatase was half-maximal at 32 nM (IC50).

As to `CCCCCCc1c(C)c2ccc(OS(N)(=O)=O)cc2oc1=O`, inhibition against Steryl-sulfatase was half-maximal at 8 nM (IC50).

With `CN(C)c1ccc(C2CC(c3c(O)c4ccccc4oc3=O)=NN2c2nc(-c3ccccc3)c(/N=N/c3ccc(Cl)cc3)s2)cc1` (configuration not stated), 34 nM corresponded to half-maximal inhibition in assay [1] (IC50).

With `Cc1cc(=O)oc2cc(OCc3cn(CCCCCCCCCCCCOc4ccc5ccc(=O)oc5c4)nn3)ccc12`, at Carbonic anhydrase 1, the Ki (in general, a measure of affinity in units of concentration, obtained from inhibition or displacement) is more than 10000 nM.

`CC1SC(N2N=C(c3cc4ccccc4oc3=O)CC2c2ccc(N(C)C)cc2)=NC1=O` (configuration not stated) yielded an IC50 in assay [1] of 34 nM.

As for `COc1ccc(-c2cc(-c3cc4ccccc4oc3=O)nc3nc(C)[nH]c(=O)c23)cc1`, the IC50 in the assay with HepG2 [2], in the assay with A549 [3] and in the assay on HCT-116 [4] was 1100 nM each time.

For `COc1ccc(-c2cc(-c3cc4ccccc4oc3=O)nc(N)c2C(N)=O)cc1`, the IC50 in the assay with HepG2 [2], with A549 [3] and in the assay on HCT-116 [4] was 1100 nM each time.

As for `COc1ccc(-c2cc(-c3cc4ccccc4oc3=O)nc(NC(C)=O)c2C#N)cc1`, the IC50 with HepG2 [2], with A549 [3] and with HCT-116 [4] was 1100 nM each time.

`Cc1nc(N2N=C(c3cc4ccccc4oc3=O)CC2c2ccc(N(C)C)cc2)sc1/N=N/c1ccc(Cl)cc1` (configuration not stated) returned an IC50 in assay [1] of 34 nM.

Regarding `CCN(CC)c1ccc2cc(-c3nc4ccccc4o3)c(=N)oc2c1`, the IC50 with RT-4, in the assay on LCLC-103H cell line and in the assay on A-427 was less than 10 nM each time.

Regarding `CC(C)=CC[C@@H](OCCc1ccc(C(=O)/N=C/c2c(Cl)c3ccccc3oc2=O)cc1)C1=CC(=O)c2c(O)ccc(O)c2C1=O`, inhibition in the assay with HeLa [5] was half-maximal at 3250 nM (IC50).

As to `Cc1c2c3c(ccc(C)c3oc1=O)[C@](C)(O)CO2`, the IC50 with HeLa [6], in the assay on HCT-116 [7], with HepG2 [8] and with MCF7 [9] was 3950 nM throughout.

Consider `COC(=O)C(Cc1ccc(O)cc1)NC(=O)c1cc2ccccc2oc1=O` (configuration not stated), for which the IC50 in [10] came out at 8600 nM; in assay [12], 34200 nM; in the assay on MCF7 [13] it was 4980 nM. In the assay on MCF7 [11], this compound had an Activity of 97.82%.

As for `COC(=O)C(CCSC)NC(=O)CCNC(=O)c1cc2ccccc2oc1=O` (configuration not stated), the values for the IC50 (in [10]; in [12]; in the assay on MCF7 [13]) were 4100 nM, 23600 nM and 5850 nM, respectively. The compound also had an Activity in the assay with MCF7 [11] of 97.35%.

`COc1ccc2oc(=O)cc(COc3c(C)occc3=O)c2c1`: the IC50 in the assay on HeLa [14] and in the assay on A549 [15] was 2470 nM throughout.
